Assay results reported in US20230099344A1, “COMPOUNDS AND METHODS FOR THE TARGETED DEGRADATION OF IRAK-4” (Arvinas Operations, Inc., priority 2021, published 2023).

target: T1, IRAK-4 (Homo sapiens, UniProt Q9NWZ3); test: IRAK-4 ELISA, PBMC degradation; format: cell-based; design: endogenous in cells; host or cells: PBMC; conditions: treated overnight
T1 sequence (Q9NWZ3 1-460): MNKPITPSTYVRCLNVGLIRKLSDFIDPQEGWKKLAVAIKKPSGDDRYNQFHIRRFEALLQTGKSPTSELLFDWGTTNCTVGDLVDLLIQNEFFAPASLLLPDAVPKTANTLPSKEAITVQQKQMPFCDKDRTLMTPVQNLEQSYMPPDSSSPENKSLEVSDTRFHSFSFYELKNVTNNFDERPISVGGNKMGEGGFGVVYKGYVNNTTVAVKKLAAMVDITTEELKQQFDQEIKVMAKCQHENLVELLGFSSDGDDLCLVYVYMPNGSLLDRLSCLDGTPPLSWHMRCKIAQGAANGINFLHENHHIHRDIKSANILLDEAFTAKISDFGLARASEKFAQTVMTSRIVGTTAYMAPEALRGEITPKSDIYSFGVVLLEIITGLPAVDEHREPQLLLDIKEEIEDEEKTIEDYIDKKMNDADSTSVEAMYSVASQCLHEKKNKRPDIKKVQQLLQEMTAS
Protocol: Reagents: Human IRAK-4 Matched Antibody Pair Kit (Abcam ab218182) and ELISA Accessory Pack (Abcam ab210905).
Cell Treatment and Lysis:
1. OCI-Ly10: 200,000 cells are seeded at 1×10^6/ml in 96-well U-bottom plates 200 ul per well, treated with compound the same day. Incubate overnight. 2. PBMC: 800,000 cells are seeded at 2×10^6/ml in 96-well U-bottom deep-well plates, 400 ul per well, treated with compound the same day. Incubate overnight.
Cell lysate is collected and analyzed by ELISA for IRAK-4 levels.

DC50 [nM]	Dmax [%]	PBMC DC90	PBMC Dmax	SMILES
< 1	≥ 90	A (A represents a DC90 value <10.0 nM)		COc1cc(N2CC(CN3CCC(n4cc5cc(NC(=O)c6cnn7cccnc67)c(OCC6CC6)cc5n4)CC3)C2)cc2c1C(=O)N(C1CCC(=O)NC1=O)C2 (stereo not drawn) [Example 124]
1 to 5	≥ 90	A (A represents a DC90 value <10.0 nM)		CCN(C1CN(c2ccc(C(=O)NC3CCC(=O)NC3=O)c(F)c2)C1)[C@H]1CC[C@H](n2cc3cc(NC(=O)c4cnn5cccnc45)c(OC(C)C)cc3n2)CC1 (stereo partly drawn) [Example 322]
≥ 10	80 to 90	D (D represents a DC90 value ≥50 nM)		CCN(C1CN(c2cccc3c2C(=O)N(C2CCC(=O)NC2=O)C3=O)C1)[C@H]1CC[C@H](n2cc3cc(NC(=O)c4cnn5cccnc45)c(OC(C)C)cc3n2)CC1 (stereo partly drawn) [Example 320]
5 to 10	< 70	D (D represents a DC90 value ≥50 nM)		CC(C)Oc1cc2c(cc1NC(=O)c1cnn3ccc(N4CCOCC4)nc13)CN(C1CCC(N(C)C3CN(c4ccc5c(c4)CN(C4CCC(=O)NC4=O)C5=O)C3)CC1)C2=O (stereo not drawn) [Example 315]
5 to 10	70 to 80	D (D represents a DC90 value ≥50 nM)		CC(C)Oc1cc2c(cc1NC(=O)c1cnn3ccc(N4CCOCC4)nc13)CN(C1CCN(CC3CN(c4ccc5c(c4)C(=O)N(C4CCC(=O)NC4=O)C5=O)C3)CC1)C2=O (stereo not drawn) [Example 73]
< 1	≥ 90	A (A represents a DC90 value <10.0 nM)		O=C1CCC(N2C(=O)c3ccc(N4CCC(CN5CCC(N6Cc7cc(NC(=O)c8cnn9cccnc89)c(OC8CC8)cc7C6=O)CC5)CC4)cc3C2=O)C(=O)N1 (stereo not drawn) [Example 27]
< 1		A (A represents a DC90 value <10.0 nM)	A (A represents a Dmax value ≥90)	COc1cc(N2CC(CN3CCC(N4Cc5cc(NC(=O)c6cnn7cccnc67)c(OC(C)C)nc5C4=O)CC3)C2)cc2c1C(=O)N(C1CCC(=O)NC1=O)C2=O (stereo not drawn) [Example 397, N-(6-(1-((1-(2-(2,6-dioxopiperidin-3-yl)-7-methoxy-1,3-dioxoisoindolin-5-yl)azetidin-3-yl)methyl)piperidin-4-yl)-2-isopropoxy-7-oxo-6,7-dihydro-5H-pyrrolo[3,4-b]ipyridin-3-yl)pyrazolo [1,5-a]pyrimidine-3-carboxamide]
5 to 10	80 to 90	D (D represents a DC90 value ≥50 nM)		CC(C)Oc1cc2c(cc1NC(=O)c1cnn3cccnc13)CN(C1CCN(CC(F)(F)C3CN(c4ccc5c(c4)C(=O)N(C4CCC(=O)NC4=O)C5=O)C3)CC1)C2=O (stereo not drawn) [Example 40]
< 1	≥ 90	A (A represents a DC90 value <10.0 nM)		COc1cc(N2CC(CN3CCC(N4Cc5cc(NC(=O)c6cnn7cccnc67)c(OC(C)C)cc5C4=O)CC3)C2)cc2c1C(=O)N(C1CCC(=O)NC1=O)C2=O (stereo not drawn) [Example 14]
< 1	≥ 90	A (A represents a DC90 value <10.0 nM)		CC(C)Oc1cc2nn(C3CCN(CC4CN(c5ccc6c(c5)C(=O)N(C5CCC(=O)NC5=O)C6=O)C4)CC3)cc2cc1NC(=O)c1cnn2cccnc12 (stereo not drawn) [Example 187]
< 1	≥ 90	A (A represents a DC90 value <10.0 nM)		O=C1CCC(N2Cc3cc(N4CC(F)(CN5CCC(n6cc7cc(NC(=O)c8cnn9cccnc89)c(OCC8CC8)cc7n6)CC5)C4)cc(F)c3C2=O)C(=O)N1 (stereo not drawn) [Example 420, N-[6-(cyclopropylmethoxy)-2-[1-[[1-[2-(2,6-dioxo-3-piperidyl)-7-fluoro-1-oxo-isoindolin-5-yl]-3-fluoro-azetidin-3-yl]methyl]-4-piperidyl]indazol-5-yl]pyrazolo[1,5-a]pyrimidine-3-carboxamide]
< 1	≥ 90	A (A represents a DC90 value <10.0 nM)		CC(C)Oc1cc2c(cc1NC(=O)c1cnn3cccnc13)CN([C@H]1CC[C@H](N3CC4(CN(c5ccc6c(c5)CN(C5CCC(=O)NC5=O)C6=O)C4)C3)CC1)C2=O (stereo partly drawn) [Example 284]
< 1	≥ 90	A (A represents a DC90 value <10.0 nM)		CC(C)Oc1cc2c(cc1NC(=O)c1cnn3cccnc13)CN(C[C@@H](F)C1CCN(CC3CN(c4ccc5c(c4)C(=O)N(C4CCC(=O)NC4=O)C5=O)C3)CC1)C2=O (stereo partly drawn) [Example 70]
< 1	≥ 90	A (A represents a DC90 value <10.0 nM)		CC(C)Oc1cc2c(cc1NC(=O)c1cnn3cccnc13)CN(C1CCN(C[C@@H]3CN(c4ccc5c(c4)C(=O)N(C4CCC(=O)NC4=O)C5=O)CCO3)CC1)C2=O (stereo partly drawn) [Example 78]
1 to 5	80 to 90	A (A represents a DC90 value <10.0 nM)		CC(C)Oc1cc2nn(C3CCN(CC4(C)CN(c5ccc6c(c5)C(=O)N(C5CCC(=O)NC5=O)C6=O)C4)CC3)cc2cc1NC(=O)c1cnn2cccnc12 (stereo not drawn) [Example 192]
< 1	70 to 80	A (A represents a DC90 value <10.0 nM)		COc1cc2nn(C3CCN(CC4(F)CN(c5ccc6c(c5)C(=O)N(C5CCC(=O)NC5=O)C6=O)C4)CC3)cc2cc1NC(=O)c1cnn2ccc(N3CCOCC3)nc12 (stereo not drawn) [Example 236]
< 1	≥ 90	A (A represents a DC90 value <10.0 nM)		O=C1CCC(N2C(=O)c3ccc(N4CCC(COCCN5Cc6cc(NC(=O)c7cnn8cccnc78)c(N7CCOCC7)cc6C5=O)CC4)cc3C2=O)C(=O)N1 (stereo not drawn) [Example 95]
< 1	≥ 90	A (A represents a DC90 value <10.0 nM)		CC(C)Oc1cc2nn(C3CCN(CC4(F)CN(c5cc6c(cc5F)C(=O)N(C5CCC(=O)NC5=O)C6=O)C4)CC3)cc2cc1NC(=O)c1cnn2cccnc12 (stereo not drawn) [Example 189]
< 1				CC(C)Oc1cc2c(cc1NC(=O)c1cnn3cccnc13)CN([C@H]1CC[C@H](N(C)C3CN(c4ccc5c(c4)CN(C4CCC(=O)NC4=O)C5=O)C3)CC1)C2=O (stereo partly drawn) [Example 329]
		A (A represents a DC90 value <10.0 nM)	A (A represents a Dmax value ≥90)	CC(C)Oc1cc2c(cc1NC(=O)c1cnn3cccnc13)CN(C1CCC(N(C)C3CN(c4ccc5c(c4)CN(C4CCC(=O)NC4=O)C5=O)C3)CC1)C2=O (stereo not drawn) [Example 329]
< 1	≥ 90	A (A represents a DC90 value <10.0 nM)		O=C1CCC(N2C(=O)c3ccc(N4CC(N5CCC(N6Cc7cc(NC(=O)c8cnn9cccnc89)c(N8CCOCC8)nc7C6=O)CC5)C4)cc3C2=O)C(=O)N1 (stereo not drawn) [Example 407]
≥ 10	80 to 90	D (D represents a DC90 value ≥50 nM)		O=C1CCC(N2C(=O)c3ccc(N4CC(N(CC(F)(F)F)C5CCC(n6cc7cc(NC(=O)c8cnn9cccnc89)c(OCC8CC8)cc7n6)CC5)C4)cc3C2=O)C(=O)N1 (stereo not drawn) [Example 327]

SMILES	DC50 [nM]	Dmax [%]	PBMC DC90	PBMC Dmax
O=C1CCC(N2C(=O)c3ccc(N4CC(O[C@H]5CC[C@H](n6cc7cc(NC(=O)c8cnn9cccnc89)c(OCC8CC8)cc7n6)CC5)C4)cc3C2=O)C(=O)N1 (stereo partly drawn) [Example 183]	1 to 5	≥ 90	B (B represents a DC90 value ≥10.0 nM and <25.0 nM)	
O=C1CCC(N2C(=O)c3ccc(N4CC(F)(CN5CCC(N6Cc7cc(NC(=O)c8cnn9cccnc89)c(OCC(F)F)cc7C6=O)CC5)C4)cc3C2=O)C(=O)N1 (stereo not drawn) [Example 102]	1 to 5	70 to 80	C (C represents a DC90 value ≥25.0 nM and <50 nM)	
O=C1CCC(N2C(=O)c3ccc(N4CCN(CCOC[C@H](F)CN5Cc6cc(NC(=O)c7cnn8cccnc78)c(N7CCOCC7)cc6C5=O)CC4)cc3C2=O)C(=O)N1 (stereo partly drawn) [Example 92]	1 to 5	≥ 90	B (B represents a DC90 value ≥10.0 nM and <25.0 nM)	
CC(C)(C)Oc1nc2nn(C3CCN(CC4(F)CN(c5ccc6c(c5)C(=O)N(C5CCC(=O)NC5=O)C6=O)C4)CC3)cc2cc1NC(=O)c1cnn2cccnc12 (stereo not drawn) [Example 220]	1 to 5	80 to 90	C (C represents a DC90 value ≥25.0 nM and <50 nM)	
O=C1CCC(N2C(=O)c3ccc(N4CC(F)(CN5CCC(N6Cc7cc(NC(=O)c8cnn9cccnc89)c(OCC8CC8)cc7C6=O)CC5)C4)cc3C2=O)C(=O)N1 (stereo not drawn) [Example 89]	1 to 5	80 to 90	B (B represents a DC90 value ≥10.0 nM and <25.0 nM)	
CN(CC1(F)CCN(c2ccc3c(c2)C(=O)N(C2CCC(=O)NC2=O)C3=O)CC1)[C@H]1CC[C@H](n2cc3cc(NC(=O)c4cnn5cccnc45)c(OCC4CC4)cc3n2)CC1 (stereo partly drawn) [Example 352]	1 to 5	80 to 90	B (B represents a DC90 value ≥10.0 nM and <25.0 nM)	
CC(C)Oc1cc2nn(C3CCN(CC4(F)CN(c5ccc(C(=O)NC6CCC(=O)NC6=O)c(F)c5)C4)CC3)cc2cc1NC(=O)c1cnn2cccnc12 (stereo not drawn) [Example 293]	1 to 5	≥ 90	B (B represents a DC90 value ≥10.0 nM and <25.0 nM)	
